Measured values as given in publication PMC3914891, “Pentacyclic Nitrofurans with In Vivo Efficacy and Activity against Nonreplicating Mycobacterium tuberculosis” (PLoS ONE, 2014).
Values after ≈ are worked out from the molar mass of the structure shown.

Experiments:
[1] = test system: 9a resistant clones of M. tuberculosis H37Rv; test: microbe, parasite or virus in culture; assay type: cell-based, Mycobacterium tuberculosis
H37Rv-T3 = assay type: cell-based, M. tuberculosis
H37Rv-5A1 = assay type: cell-based, M. tuberculosis
H37Rv-14A1 = assay type: cell-based, M. tuberculosis
M. tuberculosis H37Rv = assay type: cell-based, Mycobacterium tuberculosis

O=[N+]([O-])c1ccc(C2=NOC(c3ccc(N4CCOCC4)cc3)C2)o1 (stereo not drawn) [Compound 2]
Cross resistance profile, Clone # 1 [1]: R | Cross resistance profile, Clone # 2 [1]: R | Cross resistance profile, Clone # 3 [1]: R | Cross resistance profile, Clone # 4 [1]: R | Cross resistance profile, Clone # 5 [1]: R | Cross resistance profile, Clone # 6 [1]: R | Cross resistance profile, Clone # 7 [1]: R | Cross resistance profile, Clone # 8 [1]: R | Cross resistance profile, Clone # 9 [1]: R | Cross resistance profile, Parent [1]: S

O=[N+]([O-])c1ccc(C2=NOC(c3ccc(N4CCC(Oc5ccc(OC(F)(F)F)cc5)CC4)cc3)C2)o1 (stereo not drawn) [Compound 9a, 3-(5-Nitrofuran-2-yl)-5-(4-(4-(4-(trifluoromethoxy)phenoxy)piperidin-1-yl)phenyl)-4,5-dihydroisoxazole]
MIC (H37Rv-T3): 0.1 µg/mL (≈ 0.193 µM) | MIC (H37Rv-5A1): 0.05 µg/mL (≈ 0.0966 µM) | MIC (H37Rv-14A1): 0.1 µg/mL (≈ 0.193 µM) | frequency of spontaneous resistance (M. tuberculosis H37Rv): 3×10^−7 | Cross resistance profile, Clone # 1 [1]: R | Cross resistance profile, Clone # 2 [1]: R | Cross resistance profile, Clone # 3 [1]: R | Cross resistance profile, Clone # 4 [1]: R | Cross resistance profile, Clone # 5 [1]: R | Cross resistance profile, Clone # 6 [1]: R | Cross resistance profile, Clone # 7 [1]: R | Cross resistance profile, Clone # 8 [1]: R | Cross resistance profile, Clone # 9 [1]: R | Cross resistance profile, Parent [1]: S | MIC ([1]; Mycobacterium tuberculosis, H37RV): > 3.13 µg/mL

CC[C@@H](CO)NCCN[C@@H](CC)CO [Ethambutol]
sensitivity of 9a resistant clones to the drug [1]: retained sensitivity

NNC(=O)c1ccncc1 [Isoniazid]
sensitivity of 9a resistant clones to the drug [1]: retained sensitivity

CC(=O)NC[C@H]1CN(c2ccc(N3CCOCC3)c(F)c2)C(=O)O1 [Linezolid]
sensitivity of 9a resistant clones to the drug [1]: retained sensitivity

C[C@]1(COc2ccc(N3CCC(Oc4ccc(OC(F)(F)F)cc4)CC3)cc2)Cn2cc([N+](=O)[O-])nc2O1 [OPC-67683]
Cross resistance profile, Clone # 1 [1]: S | Cross resistance profile, Clone # 2 [1]: S | Cross resistance profile, Clone # 3 [1]: S | Cross resistance profile, Clone # 4 [1]: S | Cross resistance profile, Clone # 5 [1]: R | Cross resistance profile, Clone # 6 [1]: S | Cross resistance profile, Clone # 7 [1]: S | Cross resistance profile, Clone # 8 [1]: S | Cross resistance profile, Clone # 9 [1]: S | Cross resistance profile, Parent [1]: S

O=[N+]([O-])c1cn2c(n1)OC[C@@H](OCc1ccc(OC(F)(F)F)cc1)C2 [PA-824]
MIC (H37Rv-T3): 100 µg/mL (≈ 278 µM) | MIC (H37Rv-5A1): 50 µg/mL (≈ 139 µM) | MIC (H37Rv-14A1): 50 µg/mL (≈ 139 µM) | Cross resistance profile, Clone # 1 [1]: S | Cross resistance profile, Clone # 2 [1]: S | Cross resistance profile, Clone # 3 [1]: S | Cross resistance profile, Clone # 4 [1]: S | Cross resistance profile, Clone # 5 [1]: R | Cross resistance profile, Clone # 6 [1]: S | Cross resistance profile, Clone # 7 [1]: S | Cross resistance profile, Clone # 8 [1]: S | Cross resistance profile, Clone # 9 [1]: S | Cross resistance profile, Parent [1]: S

CO[C@H]1/C=C/O[C@@]2(C)Oc3c(C)c(O)c4c(O)c(c(/C=N/N5CCN(C)CC5)c(O)c4c3C2=O)NC(=O)/C(C)=C\C=C\[C@H](C)[C@H](O)[C@@H](C)[C@@H](O)[C@@H](C)[C@H](OC(C)=O)[C@@H]1C [Rifampin]
sensitivity of 9a resistant clones to the drug [1]: retained sensitivity

[H]/N=C(/N)N[C@H]1[C@H](O)[C@@H](O)[C@H](O[C@@H]2O[C@@H](C)[C@](O)(C=O)[C@H]2O[C@@H]2O[C@@H](CO)[C@H](O)[C@@H](O)[C@@H]2NC)[C@@H](N/C(N)=N\[H])[C@@H]1O [Streptomycin]
sensitivity of 9a resistant clones to the drug [1]: retained sensitivity

CC1COc2c(N3CCN(C)CC3)c(F)cc3c(=O)c(C(=O)O)cn1c23 (stereo not drawn) [ofloxacin]
sensitivity of 9a resistant clones to the drug [1]: retained sensitivity
